Assays:
human Gal-3 (hGal-3) = human Gal-3 (hGal-3) (Homo sapiens (Human), UniProt P17931); assay: Competitive binding assay: biotinylated hGal-3 binding to microplate-adsorbed asialofetuin (ASF); details: Activity on hGal-3; binding of biotinylated hGal-3 to ASF-coated plates; mean values
Procedure, shortened: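 Serially diluted compounds competed with biotinylated human Gal-3 for binding to plate-adsorbed asialofetuin over 3 h at 4 °C. Bound Gal-3 was detected with streptavidin-peroxidase (80 ng/mL, 1 h, 4 °C) and ABTS substrate. IC50 values are means of several measurements.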

human Gal-1 (hGal-1) = assay: Competitive binding assay: biotinylated hGal-1 binding to microplate-adsorbed asialofetuin (ASF); details: Activity on hGal-1; binding of biotinylated hGal-1 to ASF-coated plates; mean values
Chain of human Gal-1 (hGal-1) (P09382 2-135 limits assumed): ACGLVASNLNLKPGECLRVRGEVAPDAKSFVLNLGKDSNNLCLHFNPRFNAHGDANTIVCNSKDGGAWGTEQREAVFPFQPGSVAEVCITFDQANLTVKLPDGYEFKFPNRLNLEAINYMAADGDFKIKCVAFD
Procedure, shortened: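 Inhibition measured as loss of hGal-1 (biotinylated, 300–1000 ng/mL, wild type or Cys→Ser mutant) binding to adsorbed asialofetuin over 3 h at 4 °C. Bound lectin detected with streptavidin-HRP and ABTS (410 nm, 30–45 min); IC50 values averaged across repeat measurements.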

Chain of human Gal-3 (hGal-3) (P17931 whole entry): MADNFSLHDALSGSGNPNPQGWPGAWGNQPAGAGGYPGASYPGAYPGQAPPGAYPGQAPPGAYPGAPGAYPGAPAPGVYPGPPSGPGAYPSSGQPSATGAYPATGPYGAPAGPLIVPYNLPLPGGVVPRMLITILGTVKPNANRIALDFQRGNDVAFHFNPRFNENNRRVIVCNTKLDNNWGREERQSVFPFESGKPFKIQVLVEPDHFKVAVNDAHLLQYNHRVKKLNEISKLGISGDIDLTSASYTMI

| Structure (SMILES) | IC50 (human Gal-3 (hGal-3)) [nM] | IC50 (human Gal-1 (hGal-1)) [nM] |
| --- | --- | --- |
| CO[C@@H]1[C@@H](n2cc(-c3cc(F)cc(F)c3)nn2)[C@@H](O)[C@@H](CO)O[C@H]1C(=O)N(c1cc(C)cc(C#N)c1)[C@H]1CCCC[C@@H]1O [Example 81, (2R,3R,4S,5R,6R)-N-(3-cyano-5-methylphenyl)-4-(4-(3,5-difluorophenyl)-1H-1,2,3-triazol-1-yl)-5-hydroxy-N-((1S,2S)-2-hydroxycyclohexyl)-6-(hydroxymethyl)-3-methoxytetrahydro-2H-pyran-2-carboxamide] | 73 | 1320 |
| COc1cc(C#N)cc(N(C(=O)[C@@H]2O[C@H](CO)[C@H](O)[C@H](n3cc(-c4cc(F)cc(F)c4)nn3)[C@H]2OC)[C@H]2CCCC[C@@H]2O)c1 [Example 82, (2R,3R,4S,5R,6R)-N-(3-cyano-5-methoxyphenyl)-4-(4-(3,5-difluorophenyl)-1H-1,2,3-triazol-1-yl)-5-hydroxy-N-((1S,2S)-2-hydroxycyclohexyl)-6-(hydroxymethyl)-3-methoxytetrahydro-2H-pyran-2-carboxamide] | 17 | 1160 |
| CO[C@@H]1[C@@H](n2cc(-c3cc(F)cc(F)c3)nn2)[C@@H](O)[C@@H](CO)O[C@H]1C(=O)N(c1cc(C)cc(Cl)c1)[C@H]1CCCC[C@@H]1O [Example 83, (2R,3R,4S,5R,6R)-N-(3-chloro-5-methylphenyl)-4-(4-(3,5-difluorophenyl)-1H-1,2,3-triazol-1-yl)-5-hydroxy-N-((1S,2S)-2-hydroxycyclohexyl)-6-(hydroxymethyl)-3-methoxytetrahydro-2H-pyran-2-carboxamide] | 26 | 2320 |
| CO[C@@H]1[C@@H](n2cc(-c3cc(F)cc(F)c3)nn2)[C@@H](O)[C@@H](CO)O[C@H]1C(=O)N(c1cccc(Br)c1)[C@H]1CCCC[C@@H]1O [Example 84, (2R,3R,4S,5R,6R)-N-(3-bromophenyl)-4-(4-(3,5-difluorophenyl)-1H-1,2,3-triazol-1-yl)-5-hydroxy-N-((1S,2S)-2-hydroxycyclohexyl)-6-(hydroxymethyl)-3-methoxytetrahydro-2H-pyran-2-carboxamide] | 25 | 1900 |
| CO[C@@H]1[C@@H](n2cc(-c3cc(F)cc(F)c3)nn2)[C@@H](O)[C@@H](CO)O[C@H]1C(=O)N(c1cccc(Cl)c1)[C@H]1CCCC[C@@H]1O [Example 85, (2R,3R,4S,5R,6R)-N-(3-chlorophenyl)-4-(4-(3,5-difluorophenyl)-1H-1,2,3-triazol-1-yl)-5-hydroxy-N-((1S,2S)-2-hydroxycyclohexyl)-6-(hydroxymethyl)-3-methoxytetrahydro-2H-pyran-2-carboxamide] | 35 | 1690 |
| CO[C@@H]1[C@@H](n2cc(-c3cc(F)cc(F)c3)nn2)[C@@H](O)[C@@H](CO)O[C@H]1C(=O)N(c1cccc(C#N)c1)[C@H]1CCCC[C@@H]1O [Example 86, (2R,3R,4S,5R,6R)-N-(3-cyanophenyl)-4-(4-(3,5-difluorophenyl)-1H-1,2,3-triazol-1-yl)-5-hydroxy-N-((1S,2S)-2-hydroxycyclohexyl)-6-(hydroxymethyl)-3-methoxytetrahydro-2H-pyran-2-carboxamide] | 111 | 1850 |
| [2H]C([2H])([2H])O[C@@H]1[C@@H](n2cc(-c3cc(F)c(F)c(F)c3)nn2)[C@@H](O)[C@@H](CO)O[C@H]1C(=O)N(c1cc(Cl)cc(Cl)c1)[C@H]1CCCC[C@@H]1O [Example 87, (2R,3R,4S,5R,6R)-N-(3,5-dichlorophenyl)-5-hydroxy-N-((1S,2S)-2-hydroxycyclohexyl)-6-(hydroxymethyl)-3-(methoxy-d3)-4-(4-(3,4,5-trifluorophenyl)-1H-1,2,3-triazol-1-yl)tetrahydro-2H-pyran-2-carboxamide] | 7 | 173 |
| CO[C@@H]1[C@@H](n2cc(-c3cc(F)c(F)c(F)c3)nn2)[C@@H](O)[C@@H](CO)O[C@H]1C(=O)N(c1cc(Cl)cc(C#N)c1)[C@H]1CCCC[C@@H]1O [Example 88, (2R,3R,4S,5R,6R)-N-(3-chloro-5-cyanophenyl)-5-hydroxy-N-((1S,2S)-2-hydroxycyclohexyl)-6-(hydroxymethyl)-3-methoxy-4-(4-(3,4,5-trifluorophenyl)-1H-1,2,3-triazol-1-yl)tetrahydro-2H-pyran-2-carboxamide] | 13 | 157 |
| CO[C@@H]1[C@@H](n2cc(-c3cc(F)c(F)c(F)c3)nn2)[C@@H](O)[C@@H](CO)O[C@H]1C(=O)N(c1cc(Cl)ccc1C)[C@H]1CCCC[C@@H]1O [Example 89, (2R,3R,4S,5R,6R)-N-(5-chloro-2-methylphenyl)-5-hydroxy-N-((1S,2S)-2-hydroxycyclohexyl)-6-(hydroxymethyl)-3-methoxy-4-(4-(3,4,5-trifluorophenyl)-1H-1,2,3-triazol-1-yl)tetrahydro-2H-pyran-2-carboxamide] | 10 | 76 |
| CO[C@@H]1[C@@H](n2cc(-c3cc(F)c(F)c(F)c3)nn2)[C@@H](O)[C@@H](CO)O[C@H]1C(=O)N(c1ccc(F)c(Cl)c1)[C@H]1CCCC[C@@H]1O [Example 90, (2R,3R,4S,5R,6R)-N-(3-chloro-4-fluorophenyl)-5-hydroxy-N-((1S,2S)-2-hydroxycyclohexyl)-6-(hydroxymethyl)-3-methoxy-4-(4-(3,4,5-trifluorophenyl)-1H-1,2,3-triazol-1-yl)tetrahydro-2H-pyran-2-carboxamide] | 26 | 358 |
| CO[C@@H]1[C@@H](n2cc(-c3cc(F)c(F)c(F)c3)nn2)[C@@H](O)[C@@H](CO)O[C@H]1C(=O)N(c1ccc(C(F)(F)F)c(Cl)c1)[C@H]1CCCC[C@@H]1O [Example 91, (2R,3R,4S,5R,6R)-N-(3-chloro-4-(trifluoromethyl)phenyl)-5-hydroxy-N-((1S,2S)-2-hydroxycyclohexyl)-6-(hydroxymethyl)-3-methoxy-4-(4-(3,4,5-trifluorophenyl)-1H-1,2,3-triazol-1-yl)tetrahydro-2H-pyran-2-carboxamide] | 147 | 1540 |
| CO[C@@H]1[C@@H](n2cc(-c3cc(F)c(F)c(F)c3)nn2)[C@@H](O)[C@@H](CO)O[C@H]1C(=O)N(c1ccc(F)c(Br)c1)[C@H]1CCCC[C@@H]1O [Example 92, (2R,3R,4S,5R,6R)-N-(3-bromo-4-fluorophenyl)-5-hydroxy-N-((1S,2S)-2-hydroxycyclohexyl)-6-(hydroxymethyl)-3-methoxy-4-(4-(3,4,5-trifluorophenyl)-1H-1,2,3-triazol-1-yl)tetrahydro-2H-pyran-2-carboxamide] | 18 | 340 |
| CO[C@@H]1[C@@H](n2cc(-c3cc(F)c(F)c(F)c3)nn2)[C@@H](O)[C@@H](CO)O[C@H]1C(=O)N(c1ccc2ncsc2c1)[C@H]1CCCC[C@@H]1O [Example 93, (2R,3R,4S,5R,6R)-N-(benzo[d]thiazol-6-yl)-5-hydroxy-N-((1S,2S)-2-hydroxycyclohexyl)-6-(hydroxymethyl)-3-methoxy-4-(4-(3,4,5-trifluorophenyl)-1H-1,2,3-triazol-1-yl)tetrahydro-2H-pyran-2-carboxamide] | 20 | 163 |

From US12291519B2, “2-hydroxycycloalkane-1-carbamoyl” (Idorsia Pharmaceuticals Ltd, priority 2019, dated 2025)
